In PubChem BioAssay (NCI):
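Results reflect a 48-hour exposure of cells in 96-well plates to compound at five concentrations. Definition used: TGI = concentration required for complete inhibition of growth.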

Assays:
Experiment in all cases: inhibition of tumour cell growth, NCI panel, 48 h
SN12C renal = test system: SN12C renal
HOP-92 NSCLC = test system: HOP-92 NSCLC
NCI-H226 lung = test system: NCI-H226 lung
HOP-62 NSCLC = test system: HOP-62 NSCLC
CAKI-1 renal = test system: CAKI-1 renal
EKVX NSCLC = test system: EKVX NSCLC
SW-620 colon = test system: SW-620 colon
A498 renal = test system: A498 renal
HT29 colon = test system: HT29 colon
NCI-H460 lung = test system: NCI-H460 lung
M14 melanoma = test system: M14 melanoma
HCT-15 colon = test system: HCT-15 colon
MDA-MB-435 = test system: MDA-MB-435
MALME-3M melanoma = test system: MALME-3M melanoma
HCT-116 colon = test system: HCT-116 colon
SNB-75 CNS = test system: SNB-75 CNS
SK-OV-3 ovarian = test system: SK-OV-3 ovarian
HS 578T breast = test system: HS 578T breast
UO-31 renal = test system: UO-31 renal
SR leukemia = test system: SR leukemia

SMILES | TGI (SN12C renal) [µM] | TGI (HOP-92 NSCLC) [µM] | TGI (NCI-H226 lung) [µM] | TGI (HOP-62 NSCLC) [µM] | TGI (CAKI-1 renal) [µM] | TGI (EKVX NSCLC) [µM] | TGI (SW-620 colon) [µM] | TGI (A498 renal) [µM] | TGI (HT29 colon) [µM] | TGI (NCI-H460 lung) [µM] | TGI (M14 melanoma) [µM] | TGI (HCT-15 colon) [µM] | TGI (MDA-MB-435) [µM] | TGI (MALME-3M melanoma) [µM] | TGI (HCT-116 colon) [µM] | TGI (SNB-75 CNS) [µM] | TGI (SK-OV-3 ovarian) [µM] | TGI (HS 578T breast) [µM] | TGI (UO-31 renal) [µM] | TGI (SR leukemia) [µM]
CN1Cc2cc3cc4c(cc3nc2N(C)C1)OCCO4 | > 100 | > 100 | > 100 | > 100 | > 100 | > 100 | > 100 | > 100 | > 100 | > 100 | > 100 | > 100 | > 100 | > 100 | > 100 | > 100 | > 100 | – | – | –
O=c1cc(-c2ccccc2)[nH]c2ccc(N3CCOCC3)cc12 | > 95.3 | 44.1 | 0.253 | 28.2 | > 89.2 | > 100 | > 100 | 73.5 | – | > 100 | > 79.2 | > 100 | > 100 | > 100 | > 100 | – | 22.4 | > 100 | > 100 | –
Cc1ccc(NCC(=O)N2CC(=O)Nc3ccccc32)c(C)c1 | > 100 | > 100 | > 100 | > 100 | > 100 | > 100 | > 100 | – | > 100 | > 100 | > 100 | > 100 | – | > 100 | > 100 | > 100 | > 100 | – | > 100 | > 100
CS(=O)(=O)OC1CCC2(C#N)CCC1C2=O (stereo not given) | > 100 | – | > 100 | > 100 | > 100 | > 100 | – | > 100 | > 100 | > 100 | > 100 | > 100 | – | > 100 | > 100 | > 100 | > 100 | – | > 100 | 44
Cc1ccc(S(=O)(=O)N2CCC(=O)c3cc(Br)ccc32)cc1 | > 100 | 98.9 | > 100 | 59.7 | > 100 | 96.3 | > 100 | 30.1 | > 100 | > 55.4 | > 67 | > 100 | 4.98 | > 100 | > 100 | 59.6 | 63.2 | – | > 100 | > 100
CCOC(=O)c1nnsc1NC(=O)Nc1ccc(Cc2ccc(NC(=O)Nc3snnc3C(=O)OCC)cc2)cc1 | > 100 | – | > 100 | > 100 | > 100 | > 100 | > 100 | – | > 100 | > 100 | > 100 | > 100 | > 100 | > 100 | > 100 | > 100 | 54.8 | > 100 | > 100 | –
CC(=O)C1(Cc2cccc3ccccc23)S(=O)(=O)OCCOS1(=O)=O | 25 | 48.4 | 35.3 | 44.8 | 30.1 | 32.6 | 39.2 | 35.7 | 37.4 | 34 | 56.7 | 41.6 | 27.8 | 33 | 41 | 65.4 | 8.9 | – | 29.3 | 44
CCCc1cc(=O)oc2c3c(c4c(c12)OC(C)(C)CC4)O[C@@H](C)[C@H](C)[C@H]3O | 18.9 | 26.5 | 31.6 | 33.4 | 49.7 | 29.4 | 36.8 | – | 20.7 | 24.2 | 28.3 | 25.2 | 22.1 | 28 | 22.2 | 22.5 | 32.6 | 37.5 | 19 | –
CC(C)=CC1C[C@H](C2CC=C3C2(C)CCC2[C@@]3(C)C(=O)CC3[C@]2(C)C=CC(=O)[C@]3(C)CO)CO1 (stereo not given in full) | 63.2 | 41.3 | – | 30.6 | 49 | 55.1 | > 31.7 | 23.2 | 18.2 | 25.4 | 12.1 | 40.5 | – | 16.8 | 10.2 | 23.1 | 39.6 | – | 33.1 | 10.8
O=c1cc(-c2ccccc2)c2ccccc2[nH]1 | > 100 | 48.1 | 99.8 | > 100 | 90.2 | – | > 100 | – | > 100 | > 100 | > 100 | > 100 | – | 90.9 | > 100 | 46.5 | 84.8 | – | 55.9 | > 100
CCc1cc2c(c3c1CCC3=O)CC1(Cc3ccc(C)cc3C1)C2 (stereo not given) | > 100 | 62.8 | 99.8 | > 100 | – | > 100 | – | > 100 | 46.9 | – | > 100 | > 100 | > 100 | > 100 | 33.1 | – | > 100 | 86.9 | – | –
O=S1(=O)OCCOS(=O)(=O)C1S(=O)(=O)c1ccc2ccccc2c1 | > 100 | > 100 | – | > 100 | > 100 | > 100 | > 100 | – | > 100 | > 100 | > 100 | > 100 | > 100 | > 100 | > 100 | – | – | – | > 100 | > 100
O=NN1C(c2ccccc2)CC(=NO)CC1c1ccccc1 (stereo not given) | > 100 | > 100 | > 100 | > 100 | > 100 | > 100 | > 100 | – | > 100 | > 100 | > 100 | > 100 | > 100 | > 100 | > 100 | > 100 | > 100 | > 100 | > 100 | –
Cc1ccc2nc3c(=O)[nH]c(=O)nc-3n(C)c2c1C | > 100 | – | > 100 | > 100 | > 100 | > 100 | > 100 | – | > 100 | > 100 | > 100 | > 100 | > 100 | > 100 | > 100 | > 100 | > 100 | > 100 | > 100 | –
COc1c2cc(C(C)(C)C)cc1Cc1cccc(c1OCc1cccc([N+](=O)[O-])c1)Cc1cc(C(C)(C)C)cc(c1OC)Cc1cccc(c1OCc1cccc([N+](=O)[O-])c1)Cc1cc(C(C)(C)C)cc(c1OC)Cc1cccc(c1OCc1cccc([N+](=O)[O-])c1)C2 | > 50 | > 50 | – | > 50 | > 50 | > 50 | > 50 | > 50 | > 50 | > 50 | > 50 | > 50 | > 50 | > 50 | > 50 | > 50 | – | – | > 50 | > 50
Cc1c2ccncc2c(C)c2c1[nH]c1ccc(OC(C)C)cc12 | 2.45 | 3.22 | 3.05 | 2.66 | 2.96 | 2.81 | 1.89 | 2.78 | 2.64 | 2.25 | 2.96 | 2.74 | – | 3.16 | 2.04 | 3.36 | 2.77 | – | 2.89 | 3.73
CN1CN(c2ccccc2)C2(CCN(Cc3csc4ccccc34)CC2)C1=O | 30.6 | – | > 100 | 87.5 | > 100 | 41.8 | > 100 | – | 36.5 | – | 39.8 | > 100 | 28.7 | 45.5 | 19.2 | > 100 | > 100 | – | 12.3 | 23.2
CC(C)Oc1c(O)c2c3c(oc(=O)n3C=CC2c2ccccc2)c1OC(C)C (stereo not given) | > 100 | > 100 | > 100 | > 100 | 67.7 | 74 | 82.8 | – | 77.4 | 35.1 | 41.4 | 33.7 | – | – | > 100 | 53.2 | > 100 | – | 37.2 | –
NC(=O)Nc1ccc(S(=O)(=O)Nc2ccc(S(N)(=O)=O)cc2)cc1 | > 100 | > 100 | > 100 | > 100 | > 100 | > 100 | > 100 | > 100 | > 100 | > 100 | > 100 | > 100 | > 100 | > 100 | > 100 | – | – | – | > 100 | –
COC(=O)[C@H](Cc1ccccc1)NP(=O)(OCCC#N)OCC1OC(n2cc(C)c(=O)[nH]c2=O)CC1N=[N+]=[N-] (stereo not given in full) | > 100 | > 100 | > 100 | > 100 | > 100 | > 100 | > 100 | – | > 100 | > 100 | > 100 | > 100 | > 100 | > 100 | > 100 | > 100 | > 100 | > 100 | > 100 | –
N#C[C@@H](c1nc2ccccc2s1)c1ncccc1[N+](=O)[O-] | > 31.6 | 6.85 | 87.8 | > 57.6 | > 100 | > 31.6 | – | > 31.6 | – | 14.2 | > 31.6 | > 31.6 | > 100 | – | 14 | > 31.6 | > 61.1 | 27.6 | 25.6 | –
COC(=O)/C=C\COCC1C2CCC(=O)C21 (stereo not given) | > 25 | 10.6 | > 25 | > 25 | 1.29 | > 25 | > 25 | – | > 25 | 24.3 | > 25 | > 25 | > 25 | 13.3 | > 25 | > 25 | > 25 | – | > 25 | > 25
Cc1cc2c(cc1Cl)SC(NNC(=O)c1ccco1)=NS2(=O)=O | > 10 | – | > 10 | > 10 | > 10 | > 10 | > 10 | > 10 | > 10 | > 10 | > 10 | > 10 | > 10 | > 10 | > 10 | > 10 | > 10 | > 10 | > 10 | –
CCN(C(=O)N[C@@H](Cc1ccccc1)C(=O)N[C@@H](CC(C)C)C(=O)OC)c1ccccc1 | 43.8 | 59.5 | 47.6 | 70.6 | 84.7 | 58.8 | 75 | – | 27.3 | 24.9 | 21.9 | 34.5 | > 100 | – | 39.2 | – | > 100 | – | 33.3 | 23.9
C=C[C@@]1(C)CC[C@@H]2[C@@]3(C1)O[C@H]3CC1[C@](C)(C(=O)OC)CCC[C@@]12C (stereo not given in full) | – | 33.8 | – | 40.6 | > 100 | 38.6 | 41.9 | > 100 | 27.1 | 31.3 | 39.7 | 35.8 | > 100 | 35 | 28.1 | > 100 | 69.6 | 44.2 | 31.8 | –
COc1ccc(/C=C2\NC(=S)N(/C=C3\C(=O)Oc4ccccc4C3=O)C2=O)cc1OC | > 100 | > 100 | > 100 | > 100 | > 100 | > 100 | > 100 | > 100 | > 100 | > 100 | > 100 | > 100 | > 100 | – | > 100 | > 100 | > 100 | > 100 | > 100 | –
